# Data: patent US20210122739A1, “NOVEL SULFONAMIDE CARBOXAMIDE COMPOUNDS” (Inflazome Limited, priority 2017, published 2021)
# Columns and labels:
# [1] = PK protocol: pharmacokinetic parameters in male Sprague Dawley rats; format: in vivo; conditions: plasma, rat; for Vd: read-out: Vdss
# Description: Pharmacokinetic parameters were determined in male Sprague Dawley rats (Charles River, UK, 250-350 g; or Vital River Laboratory Animal Technology Co Ltd, Beijing, China, 7-9 weeks old). Animals were individually housed during the study and maintained under a 12 h light/dark cycle. Animals had free access to food and water except that some orally dosed animals were food deprived overnight prior to the study.
# For intravenous administration, compounds were formulated as a solution in water or DMSO:PBS [10:90] in 2 mL/kg dosing volume and administered via tail vein. For oral administration, compounds were formulated as a solution in water or DMSO:water [10:90] in 5 mL/kg dosing volume and administered orally.
# Serial blood samples (about 120-300 μL) were taken from each animal at each of 8 time-points post dose (0.083, 0.25, 0.5, 1, 2, 4, 8 and 24 h) or at each of 12 time-points post dose (0.03, 0.1, 0.17, 0.25, 0.5, 1, 2, 4, 6, 8, 12 and 24 h) or pre-dose and at each of 9 time-points post dose (0.25, 0.5, 1, 2, 4, 6, 8, 12 and 24 h). Samples were held on ice for no longer than 30 minutes before centrifugation (10,000 rpm (8,385 g) for 3 minutes; or 5,696 rpm (3,000 g) for 15 minutes) for plasma generation. Plasma was frozen on dry ice prior to bioanalysis. PK parameters were generated from LC-MS/MS data using Dotmatics or Phoenix WinNonlin 6.3 software.
# NLRP3 [2] = target: T1, NLRP3 (Homo sapiens, UniProt Q96P20); experiment: THP-1 cells pyroptosis assay; format: cell-based; set-up: Seed THP-1 cells (25,000 cells/well) containing 1.0 μg/ml LPS; host or cells: THP-1 cells, LPS-primed, nigericin-stimulated; conditions: 1.0 μg/ml LPS, nigericin 5 μM, resazurin readout
# T1 sequence (Q96P20 whole entry): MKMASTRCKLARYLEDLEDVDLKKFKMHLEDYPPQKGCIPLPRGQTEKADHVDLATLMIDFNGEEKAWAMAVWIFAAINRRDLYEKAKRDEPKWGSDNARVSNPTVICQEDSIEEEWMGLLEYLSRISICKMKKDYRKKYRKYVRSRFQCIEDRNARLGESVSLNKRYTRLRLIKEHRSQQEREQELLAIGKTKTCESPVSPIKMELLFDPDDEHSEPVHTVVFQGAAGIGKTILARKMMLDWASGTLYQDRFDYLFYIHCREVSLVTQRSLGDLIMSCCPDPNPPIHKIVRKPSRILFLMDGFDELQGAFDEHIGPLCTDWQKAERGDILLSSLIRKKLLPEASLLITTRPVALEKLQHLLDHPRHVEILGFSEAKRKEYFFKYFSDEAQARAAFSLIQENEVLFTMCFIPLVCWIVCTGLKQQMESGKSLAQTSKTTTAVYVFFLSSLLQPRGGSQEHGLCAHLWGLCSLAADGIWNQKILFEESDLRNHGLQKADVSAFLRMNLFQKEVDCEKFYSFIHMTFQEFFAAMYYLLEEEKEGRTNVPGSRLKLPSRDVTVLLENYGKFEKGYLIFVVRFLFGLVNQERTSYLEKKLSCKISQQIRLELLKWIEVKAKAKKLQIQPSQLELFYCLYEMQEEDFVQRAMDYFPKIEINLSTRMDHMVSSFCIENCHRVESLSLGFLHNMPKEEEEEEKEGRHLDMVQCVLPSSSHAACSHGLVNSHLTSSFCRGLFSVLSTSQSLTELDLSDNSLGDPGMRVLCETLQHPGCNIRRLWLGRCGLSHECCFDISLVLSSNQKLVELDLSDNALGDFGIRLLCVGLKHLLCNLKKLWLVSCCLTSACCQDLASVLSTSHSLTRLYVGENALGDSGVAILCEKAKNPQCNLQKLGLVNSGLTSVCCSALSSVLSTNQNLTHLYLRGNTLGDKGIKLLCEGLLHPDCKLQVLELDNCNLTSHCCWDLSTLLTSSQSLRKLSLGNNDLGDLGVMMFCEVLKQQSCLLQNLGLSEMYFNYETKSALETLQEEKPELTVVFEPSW
# Outline: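 THP-1 cells (25,000/well, serum-free RPMI) primed with 1 μg/ml LPS were given compound (8-point half-log series, top 10 μM; 0.1% DMSO) for 3 h at 37 °C, then 5 μM nigericin for 1 h. Viability read by 100 μM resazurin fluorescence (Ex 560/Em 590) after 1–2 h; IC50 from four-parameter nonlinear regression.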
# NLRP3 [3] = target: T1, NLRP3; experiment: Human whole blood IL1β release assay; format: cell-based; set-up: Plate out 80 μl of whole blood containing 1 μg/ml of LPS; from tissue; host or cells: human whole blood from healthy donors, LPS-primed, nigericin-stimulated; conditions: 1 μg/ml LPS, nigericin 10 μM, IL-1β by AlphaLisa, read-out: HWB IC50
# Description: For systemic delivery, the ability to inhibit NLRP3 when the compounds are present within the bloodstream is of great importance. For this reason, the NLRP3 inhibitory activity of a number of compounds in human whole blood was investigated in accordance with the following protocol.
# Human whole blood in Li-heparin tubes was obtained from healthy donors from a volunteer donor panel. • 1. Plate out 80 μl of whole blood containing 1 μg/ml of LPS in 96-well, clear bottom cell culture plate (Corning #3585) • 2. Add 10 μl compound (8 points half-log dilution with 10 μM top dose) or vehicle (DMSO 0.1% FAC) to the appropriate wells • 3. Incubate for 3 hrs at 37° C., 5% CO2 • 4. Add 10 μl Nigericin (Sigma #N7143) (10 μM FAC) to all wells • 5. Incubate for 1 hr at 37° C., 5% CO2 • 6. At the end of the incubation period, spin plates at 300×g for 5 mins to pellet cells and remove 20 μl of supernatant and add to 96-well v-bottom plates for IL-1β analysis (note: these plates containing the supernatants can be stored at −80° C. to be analysed at a later date) • 7. IL-1β was measured according to the manufacturer protocol (Perkin Elmer-AlphaLisa IL-1 Kit AL220F-5000) • 8. IC50 data is fitted to anon-linear regression equation (log inhibitor vs response-variable slope 4-parameters)
# [4] = intravenous administration, dose per compound in Dose column (0.83-5.05 mg/kg)
# [5] = oral administration, dose per compound in Dose column (3 or 5 mg/kg)
smiles,measurement,setting,value
"CCN(C)C(=O)c1cc(S(=O)(=O)NC(=O)Nc2c3c(cc4c2CCC4)CCC3)nn1C [Example 62, N-Ethyl-3-(N-((1,2,3,5,6,7-hexahydro-s-indacen-4-yl)carbamoyl)sulfamoyl)-N,1-dimethyl-1H-pyrazole-5-carboxamide]",AUC,[1]; [4],1720 ng·h/mL
same,clearance,[1]; [4],25 mL/min/kg
same,half-life,[1]; [4],0.1 h
same,Vd,[1]; [4],0.24 L/kg
same,IC50,NLRP3 [2],40 to 160 nM
same,IC50,NLRP3 [3],400 to 800 nM
"CN(C)C(=O)c1cc(S(=O)(=O)NC(=O)Nc2c3c(cc4c2CCC4)CCC3)nn1C [Example 69, 3-(N-((1,2,3,5,6,7-Hexahydro-s-indacen-4-yl)carbamoyl)sulfamoyl)-N,N,1-trimethyl-1H-pyrazole-5-carboxamide]",AUC,[1]; [4],3390 ng·h/mL
same,clearance,[1]; [4],24.8 mL/min/kg
same,half-life,[1]; [4],25.3 h
same,Vd,[1]; [4],17.8 L/kg
same,AUC,[1]; [5],1050 ng·h/mL
same,CL/F,[1]; [5],49.5 mL/min/kg
same,Cmax,[1]; [5],600 ng/mL
same,Tmax,[1]; [5],0.25 h
same,bioavailability,[1]; [5],62%
same,half-life,[1]; [5],3.4 h
same,IC50,NLRP3 [2],40 to 160 nM
same,IC50,NLRP3 [3],< 400 nM
"COCCN(C)C(=O)c1cc(S(=O)(=O)NC(=O)Nc2c3c(cc4c2CCC4)CCC3)nn1C [Example 27, 3-(N-((1,2,3,5,6,7-Hexahydro-s-indacen-4-yl)carbamoyl)sulfamoyl)-N-(2-methoxyethyl)-N,1-dimethyl-1H-pyrazole-5-carboxamide]",CL/F,[1]; [5],21.5 mL/min/kg
same,Tmax,[1]; [5],0.08 h
same,bioavailability,[1]; [5],67%
same,half-life,[1]; [5],4.9 h
same,IC50,NLRP3 [2],40 to 160 nM
same,IC50,NLRP3 [3],400 to 800 nM
"CC(C)c1cc(F)cc(C(C)C)c1NC(=O)NS(=O)(=O)c1cc(C(=O)N2CCC2)n(C)n1 [Example 45, 5-(Azetidine-1-carbonyl)-N-((4-fluoro-2,6-diisopropylphenyl)carbamoyl)-1-methyl-1H-pyrazole-3-sulfonamide]",AUC,[1]; [4],415 ng·h/mL
same,clearance,[1]; [4],40.3 mL/min/kg
same,half-life,[1]; [4],6.4 h
same,Vd,[1]; [4],7.96 L/kg
same,IC50,NLRP3 [2],40 to 160 nM
same,IC50,NLRP3 [3],< 400 nM
